The target of assay [1] is T1, human Hv1 (wild type, dimeric) (Homo sapiens, UniProt Q96D96).
T1 construct: gene HVCN1; full-length human Hv1 homodimer, 273 residues; pGEMHE cRNA in Xenopus laevis oocytes, inside-out patches
T1 sequence (Q96D96 1-273): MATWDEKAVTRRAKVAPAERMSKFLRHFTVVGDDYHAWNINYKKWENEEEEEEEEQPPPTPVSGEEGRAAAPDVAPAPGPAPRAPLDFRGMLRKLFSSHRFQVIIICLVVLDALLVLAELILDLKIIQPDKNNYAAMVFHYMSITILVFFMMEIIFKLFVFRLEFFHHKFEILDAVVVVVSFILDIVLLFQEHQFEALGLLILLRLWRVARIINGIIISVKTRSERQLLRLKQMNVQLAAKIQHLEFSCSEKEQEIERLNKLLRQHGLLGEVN
Briefly: inside-out patch clamp, proton current inhibition, Hill fit. The format is biochemical. As to conditions: wild-type dimer; open-channel block at +120 mV; pHi = pHo = 6.0; 22 °C; inhibitor on intracellular side. Background: The patch-clamp technique gives a direct electrical read-out from membranes.

Assay [2] concerns the target T1, human Hv1 (wild type, dimeric). Briefly: cell-based. More on the design: species or system Xenopus oocytes; patch-clamp proton currents, Hill fit of current inhibition, +120 mV, pHi = pHo = 6.0. As to conditions: apparent Kd, Hill fit of current inhibition; read-out: Kd (µM) (±SE). From the text:
Figure 1 Hv1 inhibition by guanidinothiazole derivatives. […] [2] 2-guanidino-benzothiazole (GBTA), [3] (5-trifluoromethyl-1,3-benzothiazol-2-yl)guanidine, [4] naphtho[1,2-d][1,3]thiazol-2-yl-guanidine, [5] (4-methyl-1,3-thiazol-2-yl)guanidine, [6] […] 1-[4-(4-chlorophenyl)-1,3-thiazol-2-yl]guanidine, [12] 1-[4-(3,4-dimethoxyphenyl)-1,3-thiazol-2-yl]guanidine. (b) Inhibition of human Hv1 activity by the indicated guanidinothiazoles and reference compound 2GBI (teal column). Hv1 proton currents were measured in inside out patches from Xenopus oocytes in response to depolarizations to +120 mV from a holding potential of −80 mV. Each inhibitor was added to the bath solution at a concentration of 200 μM. pHi = pHo = 6.0. Data are means ± S.E.M. (n ≥ 4). (c) Concentration dependences of inhibition of human Hv1 by compounds [2], [3], [6], and [11]. […] Apparent dissociation constants (Kd) for the different combinations of channel and inhibitor (Supplementary Table 1) were determined by fitting the concentration dependences of inhibition (average %inhib values) with the Hill equation: Figure 6 Open-state coupling is mediated by direct physical interaction between outer ends of S1 segments in the two subunits. […] Hill coefficients in inset histograms were determined from fits reported in Supplementary Figs 3 and 4. […]

Assay [3] addresses T2, D112E I127C+βME (Homo sapiens, UniProt Q96D96, D112E/I127C).
T2 construct: gene HVCN1; Hv1 homodimer, cysteines reduced by 10 mM βME
T2 sequence (Q96D96 1-273 D112E/I127C): T1 sequence (Q96D96 1-273) with D112E, I127C
Briefly: cell-based. More on the design: species or system Xenopus oocytes; patch-clamp proton currents, Hill fit of current inhibition, +120 mV, pHi = pHo = 6.0. As to conditions: read-out: Kd (µM) (±SE). On the procedure:
(§1) [2] 2-guanidino-benzothiazole (GBTA), [3] (5-trifluoromethyl-1,3-benzothiazol-2-yl)guanidine, [4] naphtho[1,2-d][1,3]thiazol-2-yl-guanidine, [5] (4-methyl-1,3-thiazol-2-yl)guanidine, [6] […] 1-[4-(4-chlorophenyl)-1,3-thiazol-2-yl]guanidine, [12] 1-[4-(3,4-dimethoxyphenyl)-1,3-thiazol-2-yl]guanidine. […] Hv1 proton currents were measured in inside out patches from Xenopus oocytes in response to depolarizations to +120 mV from a holding potential of −80 mV. Each inhibitor was added to the bath solution at a concentration of 200 μM. pHi = pHo = 6.0. Data are means ± S.E.M. (n ≥ 4). […] (a) Schematics of mutant Hv1 dimers and linked dimers designed to study how intersubunit cysteine crosslinking affects GBTA binding cooperativity. […] Hill coefficients in inset histograms were determined from fits reported in Supplementary Figs 3 and 4.

The target of assay [4] is T3, I127C+βME (Homo sapiens, UniProt Q96D96, I127C).
T3 construct: gene HVCN1; Hv1 homodimer, cysteines reduced by 10 mM βME
T3 sequence (Q96D96 1-273 I127C): T1 sequence (Q96D96 1-273) with I127C
Briefly: cell-based. More on the design: species or system Xenopus oocytes; patch-clamp proton currents, Hill fit of current inhibition, +120 mV, pHi = pHo = 6.0. As to conditions: read-out: Kd (µM) (±SE). Here is the method: as §1

Assay [5] concerns the target T4, human Hv1 (wild type, dimeric) D123R (Homo sapiens, UniProt Q96D96, D123R).
T4 construct: gene HVCN1; full-length human Hv1 homodimer, 273 residues; pGEMHE cRNA in Xenopus laevis oocytes, inside-out patches
T4 sequence (Q96D96 1-273 D123R): T1 sequence (Q96D96 1-273) with D123R
Briefly: cell-based. The arrangement: species or system Xenopus oocytes; patch-clamp proton currents, Hill fit of current inhibition, +120 mV, pHi = pHo = 6.0. As to conditions: apparent Kd, Hill fit of current inhibition; read-out: Kd (µM) (±SE). On the procedure: as §1

Assay [6] has as its target T5, human Hv1 (wild type, dimeric) E119A (Homo sapiens, UniProt Q96D96, E119A).
T5 construct: gene HVCN1; full-length human Hv1 homodimer, 273 residues; pGEMHE cRNA in Xenopus laevis oocytes, inside-out patches
T5 sequence (Q96D96 1-273 E119A): T1 sequence (Q96D96 1-273) with E119A
Briefly: cell-based. More on the design: species or system Xenopus oocytes; patch-clamp proton currents, Hill fit of current inhibition, +120 mV, pHi = pHo = 6.0. As to conditions: apparent Kd, Hill fit of current inhibition; read-out: Kd (µM) (±SE). Here is the method:
as §1

Assay [7] addresses T6, human Hv1 (wild type, dimeric) K125A (Homo sapiens, UniProt Q96D96, K125A).
T6 construct: gene HVCN1; full-length human Hv1 homodimer, 273 residues; pGEMHE cRNA in Xenopus laevis oocytes, inside-out patches
T6 sequence (Q96D96 1-273 K125A): T1 sequence (Q96D96 1-273) with K125A
Nature of the assay: cell-based. The arrangement: species or system Xenopus oocytes; patch-clamp proton currents, Hill fit of current inhibition, +120 mV, pHi = pHo = 6.0. The conditions noted are these: apparent Kd, Hill fit of current inhibition; read-out: Kd (µM) (±SE). Here is the method: as §1

Residue numbers refer to the chain shown, from its start.

As to `NC(N)=Nc1nc2ccccc2[nH]1` [compound 1, 2-Guanidino-benzimidazole], the “apparent Kd” value in assay [1] is “inhibition of dimeric and monomeric Hv1 by compounds 2GBI and GBTA”.
In the case of `N=C(N)Nc1nc2ccccc2s1` [compound 2, 2-guanidino-benzothiazole], the Kd in assay [2] amounted to 90 ± 7 µM; in assay [3] it was 191 ± 11 µM; in assay [4] it was 44.3 ± 2.5 µM; in assay [5], 35.8 ± 2.4 µM; in assay [6], 40.5 ± 2.9 µM; in assay [7], 86 ± 6 µM.

The values above are taken from PMC4568520, “Interrogation of the intersubunit interface of the open Hv1 proton channel with a probe of allosteric coupling” (Scientific Reports, 2015).
